# Key:
# human μ opiate receptor = human μ opiate receptor (Homo sapiens, UniProt P35372); assay: μ opiate receptor binding assay with [3H]-naloxone (WGA-SPA beads); details: mean
# Sequence of human μ opiate receptor (P35372 whole entry): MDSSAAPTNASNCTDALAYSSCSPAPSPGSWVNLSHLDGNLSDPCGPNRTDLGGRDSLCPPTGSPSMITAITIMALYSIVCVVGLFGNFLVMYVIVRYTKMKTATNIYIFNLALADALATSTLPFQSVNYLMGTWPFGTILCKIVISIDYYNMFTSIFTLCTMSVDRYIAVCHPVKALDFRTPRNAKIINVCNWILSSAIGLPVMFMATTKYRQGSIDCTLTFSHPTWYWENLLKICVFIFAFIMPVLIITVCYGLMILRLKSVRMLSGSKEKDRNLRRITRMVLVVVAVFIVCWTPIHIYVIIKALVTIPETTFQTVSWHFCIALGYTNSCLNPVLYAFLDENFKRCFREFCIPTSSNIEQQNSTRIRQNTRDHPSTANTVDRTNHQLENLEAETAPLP
Compound,Ki (human μ opiate receptor),melting point
"CN(C)C1(Cc2ccccc2)CCC2(CCNC2=O)CC1 (single isomer, unassigned) [Example 1, 8-Benzyl-8-(dimethyl-amino)-3-azaspiro[4.5]decan-4-one]",1.06 µM,
"CN(C)C1(Cc2ccccc2)CCC2(CCNC2=O)CC1 (single isomer, unassigned) [Example 2, 8-Benzyl-8-(dimethyl-amino)-3-azaspiro[4.5]decan-4-one]",4.79 µM,202 to 204 °C
"CN(C)C1(Cc2ccccc2)CCC2(CCNC2)CC1 (single isomer, unassigned) [Example 3, (8-Benzyl-3-azaspiro[4.5]decan-8-yl)-dimethylamine]",1.83 µM,
"CN(C)C1(Cc2ccccc2)CCC2(CCNC2)CC1 (single isomer, unassigned) [Example 4, (8-Benzyl-3-azaspiro[4.5]decan-8-yl)-dimethylamine]",0.92 µM,
"CN1CCC2(CCC(Cc3ccccc3)(N(C)C)CC2)C1 (single isomer, unassigned) [Example 5, (8-Benzyl-3-methyl-3-azaspiro[4.5]decan-8-yl)-dimethylamine]",1.45 µM,
"CN1CCC2(CCC(Cc3ccccc3)(N(C)C)CC2)C1 (single isomer, unassigned) [Example 6, (8-Benzyl-3-methyl-3-azaspiro[4.5]decan-8-yl)-dimethylamine]",1.1 µM,57 to 58 °C
"CCCCN1CCC2(CCC(C(=O)c3ccccc3)(N(C)C)CC2)C1 (single isomer, unassigned) [Example 107, [3-Butyl-8-(dimethylamino)-3-azaspiro[4.5]decan-8-yl]-phenylmethanone]",0.95 µM,
"CN(C)C1(CC2CCCCC2)CCC2(CCNC2=O)CC1 (centres unmarked) [Example 92, 8-(Cyclohexylmethyl)-8-dimethylamino-3-azaspiro[4.5]decan-4-one]",3590 µM,
CN1CCC2(CCC(Cc3ccccc3)(N(C)C)CC2)C1=O (centres unmarked) [Example 118],5.5 µM,
CN1CCC2(CCC(Cc3ccccc3)(N(C)C)CC2)C1=O (centres unmarked) [Example 119],3.57 µM,
CN1CC2(CCC(C3CCCC3)(N(C)C)CC2)CC1=O (centres unmarked) [Example 282],0.295 µM,
CN(C)C1(C2CCCC2)CCC2(CCN(C(=O)C3COC3)C2)CC1 (centres unmarked) [Example 291],0.175 µM,

# Reference: patent US10202345B2, “Substituted azaspiro(4.5)decane derivatives” (priority 2014, dated 2019)
